According to patent publication US20210353579A1, “HIGH PENETRATION COMPOSITIONS AND USES THEREOF” (Techfields Pharma Co., Ltd., priority 2006, published 2021):

Columns and labels:
[1] = system: rats (SLAC/GK, type 2 diabetes); assay: Blood lipid in type 2 diabetes rats, transdermal; type: in vivo, rat; conditions: for Cholesterol (HDL), Baseline / Cholesterol (total), Baseline / Triglycerides, Baseline: equal to 20 mg/kg of NSAIAs; for Cholesterol (HDL), Average / Cholesterol (total), Average / Triglycerides, Average: end of the fifth week, equal to 20 mg/kg of NSAIAs once per day
Description: (§1) HPPs lower blood glucose level in rat models (SLAC/GK, type 2 diabetes, n=7). 50% acetone solution of diethylaminoethyl acetylsalicylate.acetylsalicylic acid salt (P-1, in acetone); 4-acetamidophenyl salicylyldimethylaminobutyrate.HCl (P-6), diethylaminoethyl 5-(2,4-difluorophenyl) acetylsalicylate.5-(2,4-difluorophenyl).acetylsalicylic acid salt (P-8), diethylaminoethyl salicylsalicylate.AcOH (P-9), diethylaminoethyl salicylate.AcOH (P-10), diethylaminoethyl 5-acetamido-acetylsalicylate (P-58), diethylaminoethyl acetylsalicylsalicylate.acetylsalicylsalicylic acid salt (P-59), diethylaminoethyl acetylsalicylsalicylate.acetylsalicylsalicylsalicylic acid salt (P-60) (equal to of 20 mg/kg of NSAIAs) are administered transdermally to the backs (about 1.5 cm^2) of rats (fur was shaved) once per day (at 8 am) for 5 weeks. The blood glucose levels are measured once every 3 days at 3 pm (no fasting) from the second week to the fifth week (Table 24). The blood lipid levels are measured at the end of the fifth week (Table 25).

[2] = system: rats (SLAC/GK, type 2 diabetes); assay: Blood lipid in type 2 diabetes rats, oral with food; type: in vivo, rat; conditions: for Cholesterol (HDL), Baseline / Cholesterol (total), Baseline / Triglycerides, Baseline: equal to 20 mg/kg of NSAIAs; for Cholesterol (HDL), Average / Cholesterol (total), Average / Triglycerides, Average: end of the fifth week, equal to 20 mg/kg of NSAIAs every day
Description: (§2) 20% acetone solution of diethylaminoethyl acetylsalicylate.acetylsalicylic acid salt (P-1, in acetone); 4-acetamidophenyl salicylyldimethylaminobutyrate.HCl (P-6), diethylaminoethyl 5-(2,4-difluorophenyl) acetylsalicylate.5-(2,4-difluorophenyl) acetylsalicylic acid salt (P-8), diethylaminoethyl salicylsalicylate.AcOH (P-9), diethylaminoethyl salicylate.AcOH (P-10), diethylaminoethyl 5-acetamido-acetylsalicylate (P-58), diethylaminoethyl acetylsalicylsalicylate. acetylsalicylsalicylic acid salt (P-59), diethylaminoethyl acetylsalicylsalicylate. acetylsalicylsalicylsalicylic acid salt (P-60) (equal to of 20 mg/kg of NSAIAs) were mixed with food and were orally administered to the rats (SLAC/GK, type 2 diabetes, n=7) with food every day for 5 weeks. The blood glucose levels were measured once every 3 days at 3 pm (no fasting) from the second week to the fifth week. The blood lipid levels were measured at the end of the fifth week.

[3] = system: normal rats; assay: Blood glucose in normal rats, transdermal; type: in vivo, rat; conditions: for Blood glucose, Average: normal rats (second Average line of Table 24), average second to fifth week, equal to 20 mg/kg of NSAIAs once per day; for Blood glucose, Baseline: normal rats (second Baseline line of Table 24), equal to 20 mg/kg of NSAIAs
Description: as §1, with “25). […]” for “25).”

[4] = system: mice (SLAC:NOD-IDDM, type 1 diabetes); assay: Blood glucose in type 1 diabetes mice, transdermal; type: in vivo, mouse; conditions: for Blood glucose, Average: average fourth to seventh week, no fasting, equal to 30 mg/kg of NSAIAs once per day for 7 weeks; for Blood glucose, Baseline: equal to 30 mg/kg of NSAIAs
Description: The pro-drugs in this invention lower blood glucose levels in mouse models (SLAC:NOD-IDDM, type 1 diabetes, n=7). 50% acetone solution of diethylaminoethyl acetylsalicylate.acetylsalicylic acid salt (P-1, in acetone); 4-acetamidophenyl salicylyldimethylaminobutyrate.HCl (P-6), diethylaminoethyl 5-(2,4-difluorophenyl) acetylsalicylate.5-(2,4-difluorophenyl) acetylsalicylic acid salt (P-8), diethylaminoethyl salicylsalicylate.AcOH (P-9), diethylaminoethyl salicylate.AcOH (P-10), diethylaminoethyl 5-acetamido-acetylsalicylate (P-58), diethylaminoethyl acetylsalicylsalicylate. acetylsalicylsalicylic acid salt (P-59), diethylaminoethyl acetylsalicylsalicylate. acetylsalicylsalicylsalicylic acid salt (P-60) (equal to of 30 mg/kg of NSAIAs) were administered transdermally to the backs (about 1.5 cm^2) of mice (fur was shaved) once per day (at 8 am) for 7 weeks. The blood glucose levels were measured once every 3 days at 3 pm (no fasting) from the fourth week to the seventh week.

[5] = system: rats (SLAC/GK, type 2 diabetes); assay: Blood glucose in type 2 diabetes rats, transdermal; type: in vivo, rat; conditions: diabetic rats (SLAC/GK); for Blood glucose, Average: average second to fifth week, no fasting, equal to 20 mg/kg of NSAIAs once per day for 5 weeks; for Blood glucose, Baseline: equal to 20 mg/kg of NSAIAs once per day
Description: as §1

[6] = system: normal rats; assay: Blood glucose in normal rats, oral with food; type: in vivo, rat; conditions: for Blood glucose, Normal rats, Average: average second to fifth week, equal to 20 mg/kg of NSAIAs every day; for Blood glucose, Normal rats, Baseline: equal to 20 mg/kg of NSAIAs
[7] = system: rats (SLAC/GK, type 2 diabetes); assay: Blood glucose in type 2 diabetes rats, oral with food; type: in vivo, rat; conditions: for Blood glucose, Diabetic rats, Average: average second to fifth week, no fasting, equal to 20 mg/kg of NSAIAs every day for 5 weeks; for Blood glucose, Diabetic rats, Baseline: equal to 20 mg/kg of NSAIAs
Description: as §2

[8] = system: Human breast cancer cells (BCAP-37); assay: Human breast cancer xenograft in nude mice, topical; conditions: day 42, 30 μl of 5% (1.5 mg) topically every 8 hours from day 14; for Tumor size: control 800 ± 100
Procedure: Human breast cancer cells (BCAP-37, 2-3 mm^3 of tumor tissue was used in each mouse) are subcutaneously xenografted into the front leg of nude mice (BALB, 12 groups, 7 mice each group). […] Then 30 μl of 5% (equal to 1.5 mg of the HPPs) diethylaminoethyl acetylsalicylate.acetylsalicylic acid salt (P-1, in acetone); 1-piperidinepropyl 2[(2,6-dichlorophenyl)amino]benzene acetate.AcOH (P-2, in water), 1-pyrrolidinepropyl 2-(3-benzoylphenyl) propionate.AcOH (P-3, in water), 4-piperidinemethyl 2-(3-phenoxyphenyl)propionate.AcOH (P-4, in water), 3-piperidinemethyl 2-(ρ-isobutylphenyl) propionate.AcOH (P-5, in water), diethylaminoethyl 1-(p-chlorobenzoyl)-5-methoxy-2-methylindole 3-acetate.AcOH (P-11, in water), 2-(4-morpholinyl)ethyl (Z)-5-fluoro-2-methyl-1-[(4-methylsulfinyl) phenylmethylene]-1H-indene-3-acetate.AcOH (P-12, in water), diethylaminoethyl

SMILES	Cholesterol (HDL), Baseline [1] [mmol/L]	Cholesterol (total), Baseline [1] [mmol/L]	Triglycerides, Baseline [1] [mmol/L]	Cholesterol (HDL), Average [1] [mmol/L]	Cholesterol (total), Average [1] [mmol/L]	Triglycerides, Average [1] [mmol/L]	Cholesterol (HDL), Baseline [2] [mmol/L]	Cholesterol (total), Baseline [2] [mmol/L]	Triglycerides, Baseline [2] [mmol/L]	Cholesterol (HDL), Average [2] [mmol/L]	Cholesterol (total), Average [2] [mmol/L]	Triglycerides, Average [2] [mmol/L]	Blood glucose, Average [3] [mmol/L]	Blood glucose, Baseline [3] [mmol/L]	Blood glucose, Average [4] [mmol/L]	Blood glucose, Baseline [4] [mmol/L]	Blood glucose, Average [5] [mmol/L]	Blood glucose, Baseline [5] [mmol/L]	Blood glucose, Normal rats, Average [6] [mmol/L]	Blood glucose, Normal rats, Baseline [6] [mmol/L]	further results
CC(=O)Oc1ccc(-c2ccc(F)cc2F)cc1C(=O)O.CCN(CC)CCOC(=O)c1cc(-c2ccc(F)cc2F)ccc1OC(C)=O [P-8, diethylaminoethyl 5-(2,4-difluorophenyl) acetylsalicylate.5-(2,4-difluorophenyl) acetylsalicylic acid salt]	1.6 ± 0.2	7.6 ± 0.6	5.6 ± 0.6	1.5 ± 0.2	5.3 ± 0.3	1.9 ± 0.2	1.4 ± 0.2	7.8 ± 0.6	5.6 ± 0.7	1.3 ± 0.2	5.7 ± 0.3	1.8 ± 0.2	6.8 ± 1	7.1 ± 1	9.1 ± 1	29.1 ± 5	8.1 ± 1	17.1 ± 3	6.8 ± 1	7.0 ± 1	Blood glucose, Diabetic rats, Average [7]: 7.3 ± 1 mmol/L; Blood glucose, Diabetic rats, Baseline [7]: 16.1 ± 3 mmol/L
CC(=O)O.CC1=C(CC(=O)OCCN2CCOCC2)c2cc(F)ccc2/C1=C\c1ccc([S+](C)[O-])cc1 (stereo not drawn) [P-12, 2-(4-morpholinyl)ethyl (Z)-5-fluoro-2-methyl-1-[(4-methylsulfinyl)phenylmethylene]-1H-indene-3-acetate.AcOH]																					Tumor size [8]: 250 ± 50 mm^3
CC(=O)O.O=C(OCCCN1CCCC1)c1ccccc1Nc1cccc(C(F)(F)F)c1 [P-48]																					Mouse weight ([8]; control 22 ± 2): 22 ± 3 g; Tumor size [8]: 290 ± 50 mm^3
CCN(CC)CCOC(=O)c1cc(NC(C)=O)ccc1OC(C)=O [P-58, diethylaminoethyl 5-acetamido-acetylsalicylate]	1.3 ± 0.1	7.8 ± 0.5	5.3 ± 0.5	1.4 ± 0.2	5.6 ± 0.4	2.4 ± 0.2	1.8 ± 0.1	7.9 ± 0.5	5.5 ± 0.5	1.6 ± 0.2	5.8 ± 0.4	1.8 ± 0.2	7.1 ± 1	6.9 ± 1	7.9 ± 1	27.1 ± 3	8.4 ± 1	17.1 ± 3	7.2 ± 1	6.9 ± 1	Blood glucose, Diabetic rats, Average [7]: 8.4 ± 1 mmol/L; Blood glucose, Diabetic rats, Baseline [7]: 17.0 ± 3 mmol/L
CC(=O)Oc1ccccc1C(=O)Oc1ccccc1C(=O)Oc1ccccc1C(=O)O.CCN(CC)CCOC(=O)c1ccccc1OC(=O)c1ccccc1OC(C)=O [P-60, diethylaminoethyl acetylsalicylsalicylate.acetylsalicylsalicylsalicylic acid salt]	1.3 ± 0.2	7.3 ± 0.6	5.3 ± 0.6	1.5 ± 0.2	5.6 ± 0.3	2.5 ± 0.2	1.5 ± 0.2	7.5 ± 0.5	5.2 ± 0.5	1.6 ± 0.2	5.5 ± 0.3	2.5 ± 0.2	7.5 ± 1	6.6 ± 1	8.6 ± 1	25.5 ± 3	8.6 ± 1	15.5 ± 3	7.3 ± 1	6.8 ± 1	Blood glucose, Diabetic rats, Average [7]: 7.9 ± 1 mmol/L; Blood glucose, Diabetic rats, Baseline [7]: 16.5 ± 3 mmol/L
